Laboratory results as given in patent US7026344B2, “Treating sickle cell disease” (priority 2000, dated 2006).
Where “and” joins values, the source holds several entries; their conditions need not be identical. Identical values can stand only once.

How the values were obtained:
[1] = tested on: primary erythroid progenitors (BFU-E colonies) from Hb SS patients; test: BFU-E colony growth in methylcellulose culture, Hb SS patients; assay type: cell-based, human; details: for fold decrease in BFU-E colony number: 0 versus 100 μM, Hb SS patients; for BFU-E Difference: 0 vs 100 μM, sickle cell patients
Method: BFU-E Colony Growth. Mononuclear cells were isolated from the peripheral blood of each patient studied by density gradient centrifugation using Histapaque-1077 (Sigma). Erythroid progenitors were obtained in methylcellulose culture. ZL was added on day 0 at 25, 50, 75, or 100 μM concentrations for 13–14 days at which time the number of BFU-E colonies were counted on an inverted microscope and harvested for hemoglobin determinations.
The capability of ZL to induce hemoglobin F in primary erythroid progenitors, grown from peripheral blood mononuclear cells (MNC) was analyzed. BFU-E colonies were grown in methylcellulose cultures supplemented with erthyopoietin and interleukin-3 and ZL at concentration from 0 to 100 μM. Three patients homozygous for hemoglobin S (Hb SS) were analyzed with triplicate experiments. The average BFU-E colony number was 123.2±18.6 without ZL compared to 10.6±2.0 at 100 μM concentrations, p<0.05 (Table 1). […] All pair-wise comparisons for BFU-E and hemoglobin F between 0μ and other concentrations (25, 50, 75 and 100 μM) were significant at p<0.05. The correlation coefficient between the number of BFU-E colonies or percent hemoglobin F and different levels of ZL is −0.90 and +0.79, respectively (p<0.05). […] (See Yang et al., BFU-E colony growth in response to hydroxyurea: correlation between in vitro and in vivo fetal hemoglobin induction. Am J Hematol. 1997; 56:252–258). […] HU either was more efficient in inhibiting BFU-E colony growth or alternatively the baseline number of colonies on an average was higher for the Hb SS patients in the HU cohort.

[2] = tested on: human γ (Huγ) mRNA in K562 cells; test: γ globin mRNA induction in K562 cells by RNase protection assay; assay type: cell-based; details: K562, 48 hours, normalized to GAPD vs untreated
Method: Cell Culture. K562 cells were grown in suspension cultures in RPMI-1640 containing 10% fetal bovine serum, penicillin (100 U/ml) and streptomycin (0.1 mg/ml in a humidified incubator at 37° C. in a 5%CO2/95% air atmosphere. The following experimental conditions were analyzed in triplicate with 2×10^6 cells per well: an untreated control, ZL dissolved in 0.1% dimethylsulfoximide (DMSO) at final concentrations of […], HU at […] and two positive controls hemin (50 mM) and sodium butyrate (NB) 2 mM. The K562 cells were induced for 72 hours then RNA isolated for further analysis. Cell viability was completed by 2% trypan blue exclusion at timnes 0 and 72 hours.
RNA Isolation. RNA was isolated using RNA Stat-60 (TEL-TEST “B”, Inc., Friendswood, Tex.) according to the manufacturer's instructions. In brief, cell pellets will be suspended in RNA Stat-60 (1 ml) and chloroform (200 μl), and the RNA extracted and precipitated with isopropanol.
RNase Protection Analysis. MRNA levels will be quantitated by RNase protection assay (RPA) with probes designed to yield protected fragments for human γ (Huγ)and the internal control glyceraldehydes-3-phosphate dehydrogenase (GAPD). Huγ mRNA levels were normalized to that of GAPD and compared to the untreated K562 cells. (Zar: Statistical Analysis, Englewood)
Several pharmacological hemoglobin F inducers such as HU, 5-azacytidine, erythropoietin, didox, and butyrate alter γ gene expression in culture. The induction of γ gene activity in culture is a good indicator of potential clinical usefulness. Therefore the capability of ZL to induce γ gene activity at the mRNA level was tested. K562 cells were cultured in ZL from 0 to 100 μM or HU (50μ to 100 μM) for 48 hours. Total cellular RNA was analyzed by RPA for γ mRNA levels. An increase in γ mRNA for ZL at 20 μM with a maximal response at 75 μM (FIG. 4A) was observed. The level of γ gene mRNA synthesis was quantitated relative to the internal control, CAPD. […] K562 cell viability was decreased 10% when measured using trypan blue exclusion at 75 μM and 100 μM concentrations for both ZL and HU. The level of γ gene induction was 3.9 fold and 10-fold for the positive controls NB and hemin, respectively.

## CC(c1cc2ccccc2s1)N(O)C(N)=O (racemic) [ZL, (±)-1-(1-Benzo[b]thien-2-ylethyl)-1-hydroxyurea]
[1]
  fold decrease in BFU-E colony number: 11.7 fold
  BFU-E Difference: 112.6 ± 19.1
[1]; zileuton 25 μM, individual Hb SS patients (No. 1-3), colony number, 13–14 days
  BFU-E: 137 and 61 and 91
[1]; zileuton 25 μM, mean ± SEM of three Hb SS patients
  BFU-E: 96.4 ± 11.1
[1]; zileuton 50 μM, individual Hb SS patients (No. 1-3), colony number
  BFU-E: 62 and 47 and 72
[1]; zileuton 50 μM, mean ± SEM of three Hb SS patients
  BFU-E: 60.4 ± 4.3
[1]; zileuton 75 μM, individual Hb SS patients (No. 1-3), colony number
  BFU-E: 23 and 27 and 43
[1]; zileuton 75 μM, mean ± SEM of three Hb SS patients
  BFU-E: 31.1 ± 3.2
[1]; zileuton 100 μM, individual Hb SS patients (No. 1-3), colony number
  BFU-E: 13 and 12 and 7
[1]; zileuton 100 μM, mean of three Hb SS patients
  BFU-E: 10.6±2.0 and 10.5
[1]; zileuton 100 μM, mean of three Hb SS patients, listed as zileuton
  BFU-E: 10.5 ± 1.3
[2]; ZL 20 μM
  fold increase in γ mRNA: 2.6 fold
[2]; ZL 75 μM
  fold increase in γ mRNA (maximal): 4.1 fold

## NC(=O)NO [HU, Hydroxyurea]
[1]
  fold decrease in BFU-E colony number: 21.3 fold
  BFU-E Difference: 146.4 ± 9.1
[2]; HU 100 μM
  fold increase in γ mRNA: 2.7 fold
